Results taken from patent USRE30241E, “Esters of 3-(hydroxy or hydroxymethyl)-4-hydroxyphenyl aminomethyl ketones” (Sterling Drug Inc., priority 1970, dated 1980).
Where two headings read alike, the source gives them in different places.

Key:
[1] = tested on: carbachol- or histamine-induced bronchoconstriction; assay: Bronchodilator Test Method I, anesthetized dog, intravenous activity; format: in vivo; details: Canis lupus familiaris; for inhibition in vivo at 0.002 mg/kg: 2 mcg/kg i.v.
How it was run: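 Pentobarbital-anesthetized (30 mg/kg i.v.), open-chest, artificially ventilated dogs were given i.v. carbachol (4-6 µg/kg) or histamine diphosphate (35-45 µg/kg). Test compound was given i.v. mixed with, after, or 1-10 min before the constrictor.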

[2] = Stability of test solutions; details: ethylenediaminetetraacetic acid added; distilled water or saline solutions
diastolic blood pressure = assay: Effect on diastolic blood pressure in the anesthetized dog; format: in vivo
Description: The effect of a rapid intravenous injection on the heart rate the heart rate was conducted in anesthetized dogs under normal respiration. A few open-chest dogs were also tested. Increase in heart rate was measured by using an electrocardiograph attached to the dog. Readings were taken every 0.5-1 minute for the first 10 minutes and every 2-5 minutes thereafter until recovery. In some cases, several doses and more than one compound were tested alternately in the same dog. The blood pressure effect was simultaneously recorded.

heart rate = assay: Cardiovascular studies: effect on the heart rate in the anesthetized dog; format: in vivo
How it was run: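 Anesthetized dogs, mostly spontaneously breathing, some open-chest, given rapid intravenous injections. Heart rate by electrocardiograph with blood pressure recorded simultaneously, every 0.5-1 minute for 10 minutes then every 2-5 minutes until recovery; several doses or compounds sometimes tested alternately in one dog.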

[3] = tested on: guinea pig bronchioles constricted by carbachol; assay: Bronchodilator Test Method II, in vitro perfused guinea pig lung
Description: In this method bronchodilator activity in vitro was determined by testing the effect of graded doses of the test compounds on guinea pig bronchioles constricted by carbachol, using the technique reported by Sollman and von Oettingen, Proc. Soc, Exp. Biol. Med., 25,692 (1928) as modified by Tainter, Pedden, and James, J. Pharm. Exp. Ther., 51, 371 (1934) and by Luduena, von Euler, Tullar, and Lands, Arch. intern. Pharmacol., III, 392 (1957).

[4] = tested on: carbachol- or histamine-induced bronchoconstriction; assay: Bronchodilator Test Method I, anesthetized dog, intraduodenal activity; format: in vivo; details: Canis lupus familiaris, read-out: Bronchodilation; for inhibition in vivo at 0.035 mg/kg: 35 mcg/kg (salt) intraduodenal; for inhibition in vivo at 0.07 mg/kg: 70 mcg/kg (salt) intraduodenal; for inhibition in vivo at 0.28 mg/kg: 280 mcg/kg (salt) intraduodenal
How it was run: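 Pentobarbital-anesthetized (30 mg/kg i.v.) open-chest dogs of 9-18 kg, artificially ventilated; airway pressure recorded via tracheal cannula transducer. Test solution injected intraduodenally; from 5 min, i.v. carbachol (4-6 μg/kg) or histamine diphosphate (35-45 μg/kg) challenges every 30-60 min gauged degree and duration of bronchodilation.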

SMILES: CNCC(O)c1ccc(O)c(O)c1 (stereo not drawn) [V, 3,4-Dihydroxy-alpha-(methylaminomethyl)benzyl alcohol, reference compound]
- inhibition in vivo at 0.004 mg/kg ([1]; 1 min, read-out: Bronchodilatation, 4 mcg/kg i.v., 1-2 min): 0%
- inhibition in vivo at 0.064 mg/kg ([1]; 1 min, read-out: Bronchodilatation, 64 mcg/kg i.v., 1-2 min): 29%
- inhibition in vivo at 0.004 mg/kg ([1]; 10 min, read-out: Bronchodilatation, 4 mcg/kg i.v., 10 min): 0%
- inhibition in vivo at 0.008 mg/kg ([1]; 10 min, read-out: Bronchodilatation, 8 mcg/kg i.v., 10 min): 0%
- inhibition in vivo at 0.008 mg/kg ([1]; 0.5 h, read-out: Bronchodilatation, 8 mcg/kg i.v., 30 min): 0%
- inhibition in vivo at 0.016 mg/kg ([1]; 0.5 h, read-out: Bronchodilatation, 16 mcg/kg i.v., 30 min): 5%
- inhibition in vivo at 0.064 mg/kg ([1]; 0.5 h, read-out: Bronchodilatation, 64 mcg/kg i.v., 30 min): 0%
- need for stabilizing agent in solution [2]: required to stabilize them

SMILES: CCC(NC(C)C)C(O)c1ccc(O)c(O)c1 (stereo not drawn) [IV, 3,4-Dihydroxy-alpha-[1-(isopropylamino)-propyl]benzyl alcohol, reference compound]
- inhibition in vivo at 0.002 mg/kg ([1]; 5 min, 5 min, read-out: Bronchodilatation): 32%
- inhibition in vivo at 0.004 mg/kg ([1]; 5 min, 4 mcg/kg i.v., 5 min, read-out: Bronchodilatation): 72%
- inhibition in vivo at 0.008 mg/kg ([1]; 5 min, 8 mcg/kg i.v., 5 min, read-out: Bronchodilatation): 74%
- inhibition in vivo at 0.002 mg/kg ([1]; 0.5 h, 30 min, read-out: Bronchodilatation): 0%
- inhibition in vivo at 0.004 mg/kg ([1]; 0.5 h, 4 mcg/kg i.v., 30 min, read-out: Bronchodilatation): 31%
- inhibition in vivo at 0.008 mg/kg ([1]; 0.5 h, 8 mcg/kg i.v., 30 min, read-out: Bronchodilatation): 13%
- inhibition in vivo at 0.004 mg/kg ([1]; 1 h, 4 mcg/kg i.v., 60 min, read-out: Bronchodilatation): 19%
- inhibition in vivo at 0.008 mg/kg ([1]; 1 h, 8 mcg/kg i.v., 60 min, read-out: Bronchodilatation): 13%
- need for stabilizing agent in solution [2]: required to stabilize them

SMILES: CC(C)(C)NCC(O)c1ccc(O)c(O)c1 (stereo not drawn) [Ref. Cpd. I, 3,4-Dihydroxy-alpha-(tert-butylaminomethyl)benzyl alcohol, reference compound]
- Mean Decrease in Diastolic Blood Pressure (diastolic blood pressure; 0.17 meg/kg (salt) i.v.): 13%
- Mean Decrease in Diastolic Blood Pressure (diastolic blood pressure; 0.35 meg/kg (salt) i.v.): 33%
- Mean Decrease in Diastolic Blood Pressure (diastolic blood pressure; 0.7 meg/kg (salt) i.v.): 41%
- inhibition in vivo at 0.00017 mg/kg ([1]; 1 min, 0.17 mcg/kg i.v., 1-2 min, read-out: Bronchodilatation): 22%
- inhibition in vivo at 0.00035 mg/kg ([1]; 1 min, 0.35 mcg/kg i.v., 1-2 min, read-out: Bronchodilatation): 57%
- Mean Maximal Increase in the Heart Rate (heart rate; 0.17 mcg/kg (salt) i.v.): 20%
- Mean Maximal Increase in the Heart Rate (heart rate; 0.35 mcg/kg (salt) i.v.): 32%
- Mean Maximal Increase in the Heart Rate (heart rate; 0.7 mcg/kg (salt) i.v.): 44%
- need for stabilizing agent in solution [2]: required to stabilize them
- ED50 ([3]; carbachol (Doryl) 1:5 million): 0.18 µg (base)
- Duration, Mean ([3]; dose 0.32 mcg (base)): 5 ± 1.4 min
- inhibition in vivo at 0.035 mg/kg ([4]; 10 min, 10 min): 34%
- inhibition in vivo at 0.07 mg/kg ([4]; 10 min, 10 min): 40%
- inhibition in vivo at 0.28 mg/kg ([4]; 10 min, 10 min): 66%
- inhibition in vivo at 0.035 mg/kg ([4]; 0.5 h, 30 min): 41%
- inhibition in vivo at 0.07 mg/kg ([4]; 0.5 h, 30 min): 60%
- inhibition in vivo at 0.28 mg/kg ([4]; 0.5 h, 30 min): 59%
- inhibition in vivo at 0.035 mg/kg ([4]; 1 h, 60 min): 44%
- inhibition in vivo at 0.07 mg/kg ([4]; 1 h, 60 min): 35%
- inhibition in vivo at 0.28 mg/kg ([4]; 1 h, 60 min): 46%
- inhibition in vivo at 0.035 mg/kg ([4]; 2 h, 120 min): 27%
- inhibition in vivo at 0.07 mg/kg ([4]; 2 h, 120 min): 30%
- inhibition in vivo at 0.28 mg/kg ([4]; 2 h, 120 min): 54%
- inhibition in vivo at 0.035 mg/kg ([4]; 3 h, 180 min): 3%
- inhibition in vivo at 0.28 mg/kg ([4]; 3 h, 180 min): 30%
- inhibition in vivo at 0.07 mg/kg ([4]; 4 h, 240 min): 0%
